The numbers were not newly measured in patent US6468963B1, “Methods and formulations for reducing toxicity associated with diabetes treatments” (BioNumerik Pharmaceuticals, Inc., priority 2000, dated 2002), which cites them from elsewhere.

Structures are written as SMILES.

A word on the LD50: it is the dose at which mortality reaches 50%.

One data set relates to dogs. Conditions: doses higher than 3750 mg/kg (accepted LD50 for common table salt).
In a further data set the test system is mice. Conditions: doses higher than 3750 mg/kg (accepted LD50 for common table salt).
The next data set deals with humans. Particulars: doses exceeding 40 g/m^2.
The conditions of data set [1]: accepted value; species not stated.

As for `O=S(=O)([O-])CCSSCCS(=O)(=O)[O-].[Na+].[Na+]` [Dimesna, disodium 2,2′-dithiobis ethane sulfonate], the adverse effects entry in the data set on dogs, in the data set with mice and in the data set on humans was “no adverse effects” each time.

As for `[Cl-].[Na+]` [common table salt], in data set [1], the LD50 is recorded as 3750 mg/kg.
